Assay results reported in ChEMBL document CHEMBL4627355, “Chemical reactivity and uses of 1-phenyl-3-methyl-5-pyrazolone (PMP), also known as edaravone” (Bioorg Med Chem, 2020).

Legend:
[1] = Antioxidant activity assessed as copper-chelating scavenging activity; format: functional
[2] = Inhibition of lipid peroxidation; format: functional

IC50 [1]	IC50 [2]	SMILES
3 µM	3.5 µM	O=C1CC(c2ccccc2)=NN1c1ccccc1
9 µM	4.5 µM	CC1=NN(c2ccccc2)C(=O)C1 [EDARAVONE]
